Results reported in patent publication US20220227745A1, “Compounds For Modulating FXR” (NANJING RUIJIE PHARMA TECH CO., LTD., priority 2019, published 2022).

Key:
FXR LBD, GST = target: T1, FXR LBD, GST (Homo sapiens, UniProt Q96RI1); test: FXR Binding Assay (TR-FRET, Fluorescein-SRC2-2 coactivator peptide); conditions: for Emax: read-out: Pct Effect (Emax %); for EC50: TR-FRET FXR LBD coactivator recruitment
T1 construct: FXR LBD, GST; purchased Invitrogen PV4834
T1 sequence (Q96RI1 262-486 limits assumed): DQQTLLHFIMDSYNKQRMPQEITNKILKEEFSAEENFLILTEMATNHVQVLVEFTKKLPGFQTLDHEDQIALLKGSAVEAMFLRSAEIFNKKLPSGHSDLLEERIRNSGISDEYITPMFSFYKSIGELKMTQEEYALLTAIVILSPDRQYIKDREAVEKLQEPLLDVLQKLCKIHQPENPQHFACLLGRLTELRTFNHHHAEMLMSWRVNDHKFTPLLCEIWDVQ
Protocol: The interaction between the present compounds and FXR are evaluated by Time-Resolved Fluorescence Resonance Energy Transfer (TR-FRET) competition assay. FRET describes a radiation-free energy transfer between two chromophores: a donor fluorophore in its excited state can transfer energy to an acceptor fluorophore in close proximity (typically <10 nm). In contrast to standard FRET, TR-FRET unites time-resolved fluorescence (TRF) and the FRET principle, TRF use a long-lifetime lanthanide chelate as the donor species, while lanthanide chelates are unique in that their excited-state lifetime can be on the order of a millisecond or longer. Suitable neighbors for FRET are known in the art and can be obtained.
The assay was performed in following steps: first, prepared a) 1 mM compounds (100×) in DMSO; b) reaction buffer containing 1× buffer G with 10 mM DTT; c) 4×FXR LBD (20 nM) in 1× chilled buffer G. Second, performed 3-fold serial dilution of 1 mM test compounds using DMSO from 1 mM, 10 doses in a 96-well plate (249944, Nunc). Then, used complete buffer G to dilute each 100× compounds serial dilution to 2×. Third, added 10 μl 2× compound serial dilution into 384-well plate (3677, Corning). Then, added 5 μl FXR LBD into the assay plate. Prepared a solution containing 2 μM fluorescein-SRC2-2 (4×) and 20 nM Tb anti-GST antibody (4×) in buffer G at room temperature and started the reaction by adding 5 μl the above solution into each well of the assay plate. Centrifuged the assay plates at 1000 g for 1 min and then incubated at room temperature for lhr protected from light. Finally, the plate was read at wavelengths of 520 nm and 495 nm on Envision 2104 plate reader (PerkinElmer).
A ratio (Ratio520 nm/495 nm−Ratiobackground) was calculated for each well. The activity ratio was calculated as follow: […]
Ratiopositive: The average ratio for the positive control across the plate.
Ratiovehicle: The average ratio for negative controls across the plate.
(§1) EC50 was calculated by fitting % Activity values and log of compound concentrations to nonlinear regression (dose response-variable slope) with GraphPad 5.0.
(§2) X: log of compound concentration.

[1] = target: T2, hFXR-LBD (FXR-GAL4 chimeric receptor) (Homo sapiens, UniProt Q96RI1); test: FXR Transactivation Assay (GAL4 luciferase reporter in HEK293T cells); format: cell-based
T2 construct: host or cells: HEK293T
T2 sequence (Q96RI1 262-486 limits assumed): T1 sequence (Q96RI1 262-486 limits assumed)
Protocol: FXR Transactivation Assay
The present compounds were tested to assess their ability to stimulate FXR transactivation activity. The hFXR-LBD, coding sequence was inserted into the pBIND expression vector (Promega, E1581) to express FXR-GAL4 binding domain chimeric receptors. This expression vector and reporter vector (pGL4.35 which carry a stably integrated GAL4 promoter driven luciferase reporter gene) were co-transfected into HEK293T host cells. Upon agonist binding to the corresponding FXR-GAL4 chimeric receptor, the chimeric receptor binds to the GAL4 binding sites and stimulates the reporter gene.
All the working stock were shake for 5 min on plate shaker (QILINBEIER). Second, all cells were cultured as ATCC recommended. HEK293T cells were assayed in exponential growth phase. Removed culture medium from the flask and rinsed cells with PBS. Added TrypLE solution to the flask and make cells detach. Next, cells were washed once with complete growth medium. Then, cells were pelleted and washed twice with PBS to remove phenol red and resuspend them in medium to a proper concentration. Only cells with viability greater than 90% were used for assays. Seeded 6×10^6 HEK293T cells into a 100 mm dish and incubated at 37° C. under 5% CO2 atmosphere for 16 h. Third, Trans-IT reagent and Opti-MEM mix by inversion and incubate 5 min at room temperature. The cell transfection was performed by mixing DNA and the reagent mixture, as well as 6 μg GAL4-FXR plasmid or 2 μg pGL4.35 luciferase plasmid, respectively. The reagent mixture was added to a 100 mm dish and incubated for 4-7 hrs at 37° C. under 5% CO2 atmosphere. Fourth, transferred 75 nl compound dilutions into 384-well assay plates (PerkinElmer) and seeded HEK293T cells at 17,000 cells/well using phenol red-free DMEM containing 5% charcoal/dextran-treated FBS. Then, cells were incubated for 16-20 h at 37° C. under 5% CO2 atmosphere. Finally, added 25 μl Steady-Glo™ Luciferase Assay Reagent into each well of 384-well assay plate, and then shake plate for 5 min protected from light on a plate shaker. Then, the luminescence value was read on Evision 2104 plate reader (PerkinElmer).
The activity ratio was calculated as follow: […]
RLU: Resulting Luminescence
RLUpositive: The average RLU for the positive controls across the plate.
RLUvehicle: The average RLU for negative controls across the plate.
as §1, §2

[2] = % Activity relative to positive control

| SMILES | Emax (FXR LBD, GST; [2]) [%] | EC50 (FXR LBD, GST) [nM] | EC50 [1] [nM] | Pct Effect (Emax %) (FXR LBD, GST; [2]) [%] |
| --- | --- | --- | --- | --- |
| COc1cccc(Cl)c1-c1noc(C2CC2)c1CCN1CCN(c2ccc3c(C(=O)O)cn(C)c3c2)CC1 [Example I21, 6-(4-(2-(3-(2-chloro-6-methoxyphenyl)-5-cyclopropylisoxazol-4-yl)ethyl)piperazin-1-yl)-1-methyl-1H-indole-3-carboxylic Acid] | 85.1 | 890 | 2860 | – |
| Cn1nc2cc(N3CCN(CCc4c(-c5c(Cl)cccc5Cl)noc4C4CC4)CC3)ccc2c1C(=O)O [Example I18, 6-(4-(2-(5-cyclopropyl-3-(2,6-dichlorophenyl)isoxazol-4-yl)ethyl)piperazin-1-yl)-2-methyl-2H-indazole-3-carboxylic Acid] | 142 | 46 | 436 | – |
| Cn1cc(C(=O)O)c2ccc(N3CCN(CCc4c(-c5ccccc5OC(F)(F)F)noc4C4CC4)CC3)cc21 [Example I20, 6-(4-(2-(5-cyclopropyl-3-(2-(trifluoromethoxy)phenyl)isoxazol-4-yl)ethyl)piperazin-1-yl)-1-methyl-1H-indole-3-carboxylic Acid] | 193 | 450 | 906 | – |
| Cn1cc(C(=O)O)c2ccc(N3CCN(CCc4c(-c5c(Cl)cccc5Cl)noc4C4CC4)C(C)(C)C3)cc21 [Example I38, 6-(4-(2-(5-cyclopropyl-3-(2,6-dichlorophenyl)isoxazol-4-yl)ethyl)-3,3-dimethylpiperazin-1-yl)-1-methyl-1H-indole-3-carboxylic Acid] | 133 | 48 | 377 | – |
| Cn1nc(C(=O)O)c2ccc(N3CCN(CCc4c(-c5c(Cl)cccc5Cl)noc4C4CC4)CC3)cc21 [Example I17, 6-(4-(2-(5-cyclopropyl-3-(2,6-dichlorophenyl)isoxazol-4-yl)ethyl)piperazin-1-yl)-1-methyl-1H-indazole-3-carboxylic Acid] | 131 | 46 | 1230 | – |
| O=C(O)c1ccc(N2CCN(CCc3c(-c4c(Cl)cccc4Cl)noc3C3CC3)CC2)cc1 [Example I14, 4-(4-(2-(5-cyclopropyl-3-(2,6-dichlorophenyl)isoxazol-4-yl)ethyl)piperazin-1-yl)benzoic Acid] | 142 | 655 | 912 | – |
| O=C(O)c1c[nH]c2cc(N3CCN(CCc4c(-c5c(Cl)cccc5Cl)noc4C4CC4)CC3)ccc12 [Example I15, 6-(4-(2-(5-cyclopropyl-3-(2,6-dichlorophenyl)isoxazol-4-yl)ethyl)piperazin-1-yl)-1H-indole-3-carboxylic Acid] | 168 | 419 | 667 | – |
| O=C(O)c1ccc2nc(N3CCN(CCc4c(-c5c(Cl)cccc5Cl)noc4C4CC4)CC3)sc2c1 [Example I4, 2-(4-(2-(5-cyclopropyl-3-(2,6-dichlorophenyl)isoxazol-4-yl)ethyl)piperazin-1-yl)benzo[d]thiazole-6-carboxylic Acid] | 89.8 | 244 | 1500 | – |
| CC(C)c1onc(-c2c(Cl)cccc2Cl)c1CCN1CCN(c2ccc3c(C(=O)O)cn(C)c3c2)CC1 [Example I3, 6-(4-(2-(3-(2,6-dichlorophenyl)-5-isopropylisoxazol-4-yl)ethyl)piperazin-1-yl)-1-methyl-1H-indole-3-carboxylic Acid] | 192 | 91 | 239 | – |
| Cn1cc(C(=O)O)c2ccc(N3C[C@H]4C[C@@H]3CN4CCc3c(-c4c(Cl)cccc4Cl)noc3C3CC3)cc21 [Example I28, 6-((1R,4R)-5-(2-(5-cyclopropyl-3-(2,6-dichlorophenyl)isoxazol-4-yl)ethyl)-2,5-diazabicyclo[2.2.1]heptan-2-yl)-1-methyl-1H-indole-3-carboxylic Acid] | 132 | 1340 | – | – |
| C[C@@H]1CN(CCc2c(-c3c(Cl)cccc3Cl)noc2C2CC2)C[C@@H](C)N1c1ccc2c(C(=O)O)cn(C)c2c1 [Example I44, 6-((2R,6R)-4-(2-(5-cyclopropyl-3-(2,6-dichlorophenyl)isoxazol-4-yl)ethyl)-2,6-dimethylpiperazin-1-yl)-1-methyl-1H-indole-3-carboxylic Acid] | 73.5 | 401 | – | – |
| Cn1cc(C(=O)O)c2c(F)cc(N3CCN(CCc4c(-c5c(Cl)cccc5Cl)noc4C4CC4)CC3)cc21 [Example I46, 6-(4-(2-(5-cyclopropyl-3-(2,6-dichlorophenyl)isoxazol-4-yl)ethyl)piperazin-1-yl)-4-fluoro-1-methyl-1H-indole-3-carboxylic Acid] | 168 | 149 | – | – |
| O=C(O)c1ccc2nc(N3C4CCC3CN(CCc3c(-c5ccccc5OC(F)(F)F)noc3C3CC3)C4)sc2c1 [Example I34, 2-(3-(2-(5-cyclopropyl-3-(2-(trifluoromethoxy)phenyl)isoxazol-4-yl)ethyl)-3,8-diazabicyclo[3.2.1]octan-8-yl)benzo[d]thiazole-6-carboxylic Acid] | 41.5 | 236 | – | – |
| COC(=O)c1ccc2cc(N3CCN(CCc4c(-c5c(Cl)cccc5Cl)noc4C4CC4)C(C)C3)ccc2n1 (stereo not shown) [Example I53, methyl 6-(4-(2-(5-cyclopropyl-3-(2,6-dichlorophenyl)isoxazol-4-yl)ethyl)-3-methylpiperazin-1-yl)quinoline-2-carboxylate] | 68.4 | 436 | – | – |
| Cn1cc(C(=O)O)c2c(F)cc(N3CC4CC(C3)C4OCc3c(-c4c(Cl)cccc4Cl)noc3C3CC3)cc21 (stereo not shown) [Example I63, 6-(6-((5-cyclopropyl-3-(2,6-dichlorophenyl)isoxazol-4-yl)methoxy)-3-azabicyclo[3.1.1]heptan-3-yl)-4-fluoro-1-methyl-1H-indole-3-carboxylic Acid] | 106 | 102 | – | – |
| Cn1cc(C(=O)O)c2ccc(N3CC4CC3CN4CCc3c(-c4c(Cl)cccc4Cl)noc3C3CC3)cc21 (stereo not shown) [Example I48, 6-(5-(2-(5-cyclopropyl-3-(2,6-dichlorophenyl)isoxazol-4-yl)ethyl)-2,5-diazabicyclo[2.2.1]heptan-2-yl)-1-methyl-1H-indole-3-carboxylic Acid] | – | 1720 | – | 124.90 |
| Cn1cc(C(=O)O)c2ccc(N3CCN(CCc4c(-c5ccc(Cl)cc5Cl)noc4C4CC4)CC3)cc21 [Example I16, 6-(4-(2-(5-cyclopropyl-3-(2,4-dichlorophenyl)isoxazol-4-yl)ethyl)piperazin-1-yl)-1-methyl-1H-indole-3-carboxylic Acid] | – | > 10000 | – | – |
| Cn1cc(C(=O)O)c2ccc(N3CC4CC(C3)N4CCc3c(-c4c(Cl)cccc4Cl)noc3C3CC3)cc21 [Example I49, 6-(6-(2-(5-cyclopropyl-3-(2,6-dichlorophenyl)isoxazol-4-yl)ethyl)-3,6-diazabicyclo[3.1.1]heptan-3-yl)-1-methyl-1H-indole-3-carboxylic Acid] | – | > 10000 | – | – |
